The results in this text go back to US20260158017A1, “KIF18A INHIBITOR” (WIGEN BIOMEDICINE TECHNOLOGY (SHANGHAI) CO., LTD., priority 2021, published 2026).

The structures appear in SMILES notation. Bounds are passed on as bounds.

The target of this assay is T1, Recombinant human KIF18A (1-467His-tagged) protein (Homo sapiens, UniProt Q8NI77).
T1 construct: Recombinant human KIF18A (1-467His-tagged) protein; His; made in house
T1 sequence (Q8NI77 1-467): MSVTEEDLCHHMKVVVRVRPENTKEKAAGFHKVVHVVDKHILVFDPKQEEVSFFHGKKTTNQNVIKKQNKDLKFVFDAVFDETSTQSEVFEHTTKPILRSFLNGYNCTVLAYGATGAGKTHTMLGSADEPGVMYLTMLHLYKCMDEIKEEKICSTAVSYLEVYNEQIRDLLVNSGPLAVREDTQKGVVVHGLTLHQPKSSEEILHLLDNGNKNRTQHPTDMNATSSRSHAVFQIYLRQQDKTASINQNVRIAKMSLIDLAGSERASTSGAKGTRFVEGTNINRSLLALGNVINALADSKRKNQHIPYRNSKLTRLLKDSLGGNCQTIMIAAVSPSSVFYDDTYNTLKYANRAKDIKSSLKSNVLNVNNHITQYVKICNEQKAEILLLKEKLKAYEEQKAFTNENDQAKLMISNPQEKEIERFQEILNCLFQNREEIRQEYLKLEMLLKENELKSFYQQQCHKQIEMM
T1 sequence (P02550 whole entry partner): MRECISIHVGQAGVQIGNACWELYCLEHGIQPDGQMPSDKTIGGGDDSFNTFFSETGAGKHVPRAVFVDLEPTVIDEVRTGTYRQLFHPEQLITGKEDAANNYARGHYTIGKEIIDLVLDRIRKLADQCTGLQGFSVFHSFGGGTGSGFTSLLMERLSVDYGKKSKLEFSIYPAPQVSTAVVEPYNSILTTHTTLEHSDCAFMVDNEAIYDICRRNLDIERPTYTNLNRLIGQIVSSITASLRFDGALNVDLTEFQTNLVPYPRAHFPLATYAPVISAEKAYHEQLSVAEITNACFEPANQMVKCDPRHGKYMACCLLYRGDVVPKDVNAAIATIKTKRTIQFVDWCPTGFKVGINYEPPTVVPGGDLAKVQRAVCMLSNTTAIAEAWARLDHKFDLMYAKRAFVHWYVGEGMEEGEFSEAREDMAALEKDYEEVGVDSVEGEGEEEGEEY
T1 sequence (P02554 whole entry partner): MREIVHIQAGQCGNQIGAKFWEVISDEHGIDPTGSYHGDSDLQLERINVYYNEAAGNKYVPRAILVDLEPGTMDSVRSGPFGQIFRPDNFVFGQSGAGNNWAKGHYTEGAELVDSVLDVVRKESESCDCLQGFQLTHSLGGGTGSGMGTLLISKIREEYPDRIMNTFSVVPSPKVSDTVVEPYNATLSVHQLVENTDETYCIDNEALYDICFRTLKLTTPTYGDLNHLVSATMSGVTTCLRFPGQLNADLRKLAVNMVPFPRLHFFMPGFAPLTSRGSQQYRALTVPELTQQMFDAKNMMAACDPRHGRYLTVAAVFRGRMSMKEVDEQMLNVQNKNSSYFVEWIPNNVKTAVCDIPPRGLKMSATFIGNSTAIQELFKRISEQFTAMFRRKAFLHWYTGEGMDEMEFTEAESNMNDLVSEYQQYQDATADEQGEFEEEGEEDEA
Description: KIF18A enzyme assay (microtubule-stimulated ATPase activity, ADP-Glo). The following applies: 30 nM KIF18A, 75 μM ATP, 30 μg/mL pig microtubules; read-out: Inhibitory activity against KIF18A IC50. It counts as biochemical. In short, it runs like this:
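Buffer 15 mM Tris pH 7.5, 10 mM MgCl2, 0.01% Pluronic F-68, 1 μM paclitaxel, 30 μg/mL pig microtubules; reactions at room temperature. IC50 from inhibition relative to DMSO.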
For the compound `O=C(Nc1ccc([N+](=O)[O-])c(N2CCC(F)CC2)n1)c1cnc(NS(=O)(=O)CCO)cc1N1CCC2(CC1)CC2` [Compound 137], the IC50 is at most 100 nM.
To `C[C@H]1CN(c2nc(NC(=O)c3ccc(S(=O)(=O)NCCO)cc3N3CCC4(CC3)CC4)ccc2OCF)CCO1` [Compound 435] belongs at most 100 nM.
To `C[C@@H]1CN(c2nc(C(=O)Nc3ccc(NS(=O)(=O)[C@@H](C)CO)cc3N3CCC4(CC3)CC4)ccc2[N+](=O)[O-])CCO1` [Compound 175] belongs at most 100 nM; to `C[C@H](CO)NS(=O)(=O)c1cc(N2CCC3(CC2)CC3)c(C(=O)Nc2ccc([N+](=O)[O-])c(N3CCC(F)(F)CC3)n2)cn1` [Compound 158], at most 100 nM.
Consider `O=C(Nc1cnc(S(=O)(=O)NCCO)cc1N1CCC2(CC1)CC2)c1ccc([N+](=O)[O-])c(N2CCOCC2)c1` [Compound 220], for which the 50% inhibitory concentration (IC50) fell in the range of 100 to 500 nM.
With `O=C(Nc1ccc(NS(=O)(=O)CCO)cc1N1CCC2(CC1)CC2)c1ccc(OCF)c(N2CC(F)(F)C2)c1` [Compound 516], the concentration for half-maximal inhibition (IC50) was at most 100 nM.
To `O=C(Nc1ccc(OCF)c(N2CCC3(CC3)C2)n1)c1ccc(S(=O)(=O)NCCO)cc1N1CCC2(CC1)CC2` [Compound 438] belongs at most 100 nM; to `C[C@H](CO)NS(=O)(=O)c1cc(N2CCC3(CC2)CC3)c(C(=O)Nc2ccc([N+](=O)[O-])c(N3CCO[C@H](C)C3)c2)cn1` [Compound 128], at most 100 nM.
To `O=C(Nc1ccc(OCF)c(N2CCC(F)(F)CC2)n1)c1cnc(S(=O)(=O)NCCO)cc1N1CCC2(CC1)CC2` [Compound 497] belongs at most 100 nM.
Turning to `O=C(Nc1ccc(OCF)c(OCCC(F)(F)F)n1)c1ccc(NS(=O)(=O)CCO)cc1N1CCC2(CC1)CC2` [Compound 421], the half-inhibitory concentration (IC50) was at most 100 nM.
The value for `C[C@@H](CO)NS(=O)(=O)c1ccc(C(=O)Nc2ccc(OCF)c(N3CCC(F)(F)CC3)n2)c(N2CCC3(CC2)CC3)c1` [Compound 445] was at most 100 nM; that for `CSc1ccc(NC(=O)c2ccc(NS(=O)(=O)CCO)cc2N2CCC3(CC2)CC3)cc1OCCC(F)(F)F` [Compound 581] was at most 100 nM.
As for `O=C(Nc1cnc(NS(=O)(=O)CCO)cc1N1CCC2(CC1)CC2)c1ccc([N+](=O)[O-])c(N2CC(F)(F)C2)c1` [Compound 196], the half-maximal inhibitory concentration (IC50) is at most 100 nM.
The value for `CC(C)(CO)Nc1nc(C(=O)Nc2cnc(NS(=O)(=O)CCO)cc2N2CCC3(CC2)CC3)ccc1[N+](=O)[O-]` [Compound 235] was at most 100 nM; that for `O=C(Nc1ccc(OCF)c(OCCC(F)(F)F)c1)c1ccc(S(=O)(=O)NCCO)cc1N1CCC2(CC1)CC2` [Compound 405] was at most 100 nM.
For `CC(C)(CO)Nc1nc(NC(=O)c2cnc(NS(=O)(=O)CCO)cc2N2CCC3(CC2)CC3)ccc1OCF` [Compound 491], the IC50 was at most 100 nM.
The value for `O=C(Nc1ccc(S(=O)(=O)NCCO)cc1N1CCC2(CC1)CC2)c1ccc(OCF)c(N2CC3CC3C2)c1` (stereo not shown) [Compound 538] was 100 to 500 nM; that for `O=C(Nc1ccc([N+](=O)[O-])c(N2CC(F)(F)C2)n1)c1cnc(S(=O)(=O)NCCO)cc1N1CCC2(CC1)CC2` [Compound 148] was at most 100 nM; that for `O=C(Nc1ccc(OCF)c(N2CCOCC2)n1)c1cnc(S(=O)(=O)NCCO)cc1N1CCC2(CC1)CC2` [Compound 508] was at most 100 nM.
For the compound `CC1(F)CCN(c2nc(C(=O)Nc3ccc(NS(=O)(=O)CCO)cc3N3CCC4(CC3)CC4)ccc2[N+](=O)[O-])C1` (stereo not shown) [Compound 168], the IC50 was at most 100 nM.
With `CSc1ccc(NC(=O)c2ccc(NS(=O)(=O)CCO)cc2N2CCC3(CC2)CC3)nc1N1CCC(F)CC1` [Compound 601], the IC50 is at most 100 nM.
`CC1(F)CCN(c2nc(C(=O)Nc3cnc(NS(=O)(=O)CCO)cc3N3CCC4(CC3)CC4)ccc2[N+](=O)[O-])C1` (stereo not shown) [Compound 232]: the IC50 was at most 100 nM.
The value for `CC(C)(CO)Nc1nc(C(=O)Nc2ccc(S(=O)(=O)NCCO)cc2N2CCC3(CC2)CC3)ccc1OCF` [Compound 571] was 100 to 500 nM.
`C[C@H](CO)S(=O)(=O)Nc1cc(N2CCC3(CC2)CC3)c(C(=O)Nc2ccc([N+](=O)[O-])c(N3CCC(F)(F)CC3)n2)cn1` [Compound 142]: the IC50 was at most 100 nM.
To `C[C@H]1CN(c2cc(NC(=O)c3cnc(NS(=O)(=O)CCO)cc3N3CCC4(CC3)CC4)ccc2OCF)CCO1` [Compound 451] belongs at most 100 nM; to `O=C(Nc1ccc([N+](=O)[O-])c(OC2CCC2)c1)c1cnc(NS(=O)(=O)CCO)cc1N1CCC2(CC1)CC2` [Compound 103], at most 100 nM.
Take `COc1ccc(NC(=O)c2cnc(NS(=O)(=O)[C@@H](C)CO)cc2N2CCC3(CC2)CC3)nc1N1CCO[C@H](C)C1` [Compound 303]: the IC50 is at most 100 nM.
As to `COc1ccc(C(=O)Nc2ccc(S(=O)(=O)NCCO)cc2N2CCC3(CC2)CC3)nc1N1CC2CC2C1` (stereo not shown) [Compound 346], the half-inhibitory concentration (IC50) was at most 100 nM.
As to `O=C(Nc1ccc(NS(=O)(=O)CCO)cc1N1CCC2(CC1)CC2)c1ccc(OCF)c(N2CCOCC2)c1` [Compound 524], the half-inhibitory concentration (IC50) was at most 100 nM.
To `O=C(Nc1ccc(S(=O)(=O)NCCO)cc1N1CCC2(CC1)CC2)c1ccc(OCF)c(N2CCOCC2)c1` [Compound 540] belongs 100 to 500 nM; to `C[C@@H](CO)S(=O)(=O)Nc1ccc(C(=O)Nc2ccc(OCF)c(N3CCC(F)(F)CC3)n2)c(N2CCC3(CC2)CC3)c1` [Compound 429], at most 100 nM; to `O=C(Nc1ccc(OCF)c(N2CC3CC3C2)c1)c1cnc(NS(=O)(=O)CCO)cc1N1CCC2(CC1)CC2` (stereo not shown) [Compound 458], at most 100 nM.
The value for `COc1ccc(C(=O)Nc2cnc(NS(=O)(=O)CCO)cc2N2CCC3(CC2)CC3)nc1N1CC2CC2C1` (stereo not shown) [Compound 362] was at most 100 nM; that for `COc1ccc(NC(=O)c2cnc(NS(=O)(=O)CCO)cc2N2CCC3(CC2)CC3)nc1N1CCOCC1` [Compound 300] was at most 100 nM; that for `O=C(Nc1ccc(NS(=O)(=O)CCO)cc1N1CCC2(CC1)CC2)c1ccc([N+](=O)[O-])c(OCCC(F)(F)F)n1` [Compound 165] was at most 100 nM.
With `CC(C)(CO)Nc1nc(NC(=O)c2ccc(NS(=O)(=O)CCO)cc2N2CCC3(CC2)CC3)ccc1OCF` [Compound 427], the concentration for half-maximal inhibition (IC50) is at most 100 nM.
The value for `O=C(Nc1ccc(S(=O)(=O)NCCO)cc1N1CCC2(CC1)CC2)c1ccc(OCF)c(N2CC(F)(F)C2)n1` [Compound 564] was 100 to 500 nM; that for `C[C@@H]1CN(c2cc(NC(=O)c3cnc(S(=O)(=O)N[C@@H](C)CO)cc3N3CCC4(CC3)CC4)ccc2[N+](=O)[O-])CCO1` [Compound 127] was at most 100 nM; that for `C[C@@H](CO)NS(=O)(=O)c1ccc(NC(=O)c2ccc([N+](=O)[O-])c(N3CCC(F)(F)CC3)n2)c(N2CCC3(CC2)CC3)c1` [Compound 189] was 100 to 500 nM.
The value for `COc1ccc(C(=O)Nc2cnc(NS(=O)(=O)CCO)cc2N2CCC3(CC2)CC3)nc1N1CCO[C@H](C)C1` [Compound 354] was at most 100 nM.
Turning to `CSc1ccc(NC(=O)c2ccc(NS(=O)(=O)CCO)cc2N2CCC3(CC2)CC3)nc1OC1CCC1` [Compound 599], the concentration for half-maximal inhibition (IC50) is at most 100 nM.
The value for `C[C@@H](CO)S(=O)(=O)Nc1ccc(NC(=O)c2ccc([N+](=O)[O-])c(N3CCC(F)(F)CC3)c2)c(N2CCC3(CC2)CC3)c1` [Compound 45] was 100 to 500 nM.
Consider `C[C@@H]1CN(c2nc(C(=O)Nc3ccc(S(=O)(=O)N[C@@H](C)CO)cc3N3CCC4(CC3)CC4)ccc2[N+](=O)[O-])CCO1` [Compound 191], for which the half-inhibitory concentration (IC50) was 100 to 500 nM.
